According to patent publication US9732119B2, “Immunomodulators” (BRISTOL-MYERS SQUIBB COMPANY, priority 2014, dated 2017):
Positions of bridges follow the written chain, without caps; N, C: chain ends. Non-standard residues stand in square brackets, D forms with d. Residues, ends and D or L forms follow the SMILES beside them. Trp(1-CH2COOH) = N[C@@H](Cc1cn(CC(=O)O)c2ccccc12)C(=O)O; Phe(4-Cl) = N[C@@H](Cc1ccc(Cl)cc1)C(=O)O; Phe(4-F) = N[C@@H](Cc1ccc(F)cc1)C(=O)O; Phe(4-Me) = Cc1ccc(C[C@H](N)C(=O)O)cc1; Hyp = O=C(O)[C@@H]1C[C@@H](O)CN1; Aad = N[C@@H](CCCC(=O)O)C(=O)O; NMeNle = CCCC[C@H](NC)C(=O)O; dOrn = NCCC[C@@H](N)C(=O)O; Pip = O=C(O)[C@@H]1CCCCN1; NMeA = CN[C@@H](C)C(=O)O; Orn = NCCC[C@H](N)C(=O)O; Dab = NCC[C@H](N)C(=O)O; Dap = NC[C@H](N)C(=O)O; AEA = NCCOCC(=O)O; Ava = NCCCCC(=O)O

target: T1, PD-1-Ig binding to PD-L1-TVMV-His (PD-L1-His) (Homo sapiens, UniProt Q9NZQ7); assay: PD-1/PD-L1 Homogenous Time-Resolved Fluorescence (HTRF) binding assay; conditions: PD-1-Ig (20 nM) / PD-L1-His (10 nM); range classes
T1 construct: hPDL1(19-239)-TVMV-His; made in house; host or cells: HEK293T cells
Source text: The ability of the macrocyclic peptides of the present disclosure to bind to PD-L1 was investigated using a PD-1/PD-L1 Homogenous Time-Resolved Fluorescence (HTRF) binding assay.
Homogenous Time-Resolved Fluorescence (HTRF) Assays of Binding of Soluble PD-1 to Soluble PD-L1. Soluble PD-1 and soluble PD-L1 refers to proteins with carboxyl-end truncations that remove the transmembrane-spanning regions and are fused to heterologous sequences, specifically the Fc portion of the human immunoglobuling G sequence (Ig) or the hexahistidine epitope tag (His). All binding studies were performed in an HTRF assay buffer consisting of dPBS supplemented with 0.1% (w/v) bovine serum albumin and 0.05% (v/v) Tween-20. For the PD-1-Ig/PD-L1-His binding assay, inhibitors were pre-incubated with PD-L1-His (10 nM final) for 15 m in 4 μl of assay buffer, followed by addition of PD-1-Ig (20 nM final) in 1 μl of assay buffer and further incubation for 15 m. PD-L1 fusion proteins from either human, cynomologous macaques, mouse, or other species were used. HTRF detection was achieved using europium crypate-labeled anti-Ig monoclonal antibody (1 nM final) and allophycocyanin (APC) labeled anti-His monoclonal antibody (20 nM final). Antibodies were diluted in HTRF detection buffer and 5 μl was dispensed on top of binding reaction. […] Additional binding assays were established between PD-1-Ig/PD-L2-His (20 and 5 nM, respectively), CD80-His/PD-L1-Ig (100 and 10 nM, respectively) and CD80-His/CTLA4-Ig (10 and 5 nM, respectively).
Recombinant Proteins. […] Human PD-L2-His (Sino Biologicals), CD80-His (Sino Biologicals), CTLA4-Ig (RnD Systems) were all obtained through commercial sources.

T1 sequence (Q9NZQ7 with tags, fused parts or gaps): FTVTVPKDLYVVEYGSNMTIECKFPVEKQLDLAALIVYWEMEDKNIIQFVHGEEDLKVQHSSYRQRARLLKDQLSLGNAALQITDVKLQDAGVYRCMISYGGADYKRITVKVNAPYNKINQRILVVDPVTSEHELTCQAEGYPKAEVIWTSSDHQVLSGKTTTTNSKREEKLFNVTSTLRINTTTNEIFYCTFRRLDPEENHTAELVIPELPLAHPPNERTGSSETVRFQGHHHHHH

Question: With `CCCC[C@H]1C(=O)N(C)[C@@H](CCCC)C(=O)N[C@@H](CO)C(=O)N[C@H](C(=O)NCC(N)=O)CNCC(=O)N[C@@H](Cc2ccc(O)cc2)C(=O)N(C)[C@@H](C)C(=O)N[C@@H](CC(N)=O)C(=O)N2CCC[C@H]2C(=O)N[C@@H](Cc2cnc[nH]2)C(=O)N[C@@H](CCC(N)=O)C(=O)N2C[C@H](O)C[C@H]2C(=O)N[C@@H](Cc2c[nH]c3ccccc23)C(=O)N[C@@H](CO)C(=O)N[C@@H](Cc2c[nH]c3ccccc23)C(=O)N1C` [Example 10024] as the compound, how does the IC50 read?
Answer: The IC50 was 10 to 99 nM.

Question: Which IC50 does the source give for `CCCC[C@H]1C(=O)N(C)[C@@H](CCCC)C(=O)N[C@@H](CC(C)C)C(=O)NCCC[C@H](N)C(=O)N[C@@H](Cc2ccc(C)cc2)C(=O)N2CCCC[C@H]2C(=O)N[C@@H](CC(N)=O)C(=O)N2CCC[C@H]2C(=O)N[C@@H](CN)C(=O)N[C@@H](CCC(=O)O)C(=O)N2C[C@H](O)C[C@H]2C(=O)N[C@@H](Cc2c[nH]c3ccccc23)C(=O)N[C@@H](CCN)C(=O)N[C@@H](Cc2cn(CC(=O)O)c3ccccc23)C(=O)N1C` [Example 10547] (H-[Orn][Phe(4-Me)][Pip]NP[Dap]E[Hyp]W[Dab][Trp(1-CH2COOH)][NMeNle][NMeNle]L; lactam 1-C) here?
Answer: The IC50 was 10 to 99 nM.

Question: With `CCCC[C@H]1C(=O)N(C)[C@@H](CCCC)C(=O)N[C@@H](CC(C)C)C(=O)N[C@H](C(N)=O)CCCC(=O)N[C@@H](Cc2ccc(F)cc2)C(=O)N2CCCC[C@H]2C(=O)N[C@@H](CC(N)=O)C(=O)N2CCC[C@H]2C(=O)N[C@@H](CN)C(=O)N[C@@H](CC(C)C)C(=O)N2C[C@H](O)C[C@H]2C(=O)N[C@@H](Cc2c[nH]c3ccccc23)C(=O)N[C@@H](CCN)C(=O)N[C@@H](Cc2cn(CC(=O)O)c3ccccc23)C(=O)N1C` [Example 10526] ([Phe(4-F)][Pip]NP[Dap]L[Hyp]W[Dab][Trp(1-CH2COOH)][NMeNle][NMeNle]L[Aad]-NH2; lactam N-14) as the compound, how does the IC50 read?
Answer: The IC50 was 10 to 99 nM.

Question: Which IC50 does the source give for `CCCC[C@H]1C(=O)N(C)[C@@H](CCCC)C(=O)N[C@@H](C)C(=O)N[C@H](C(=O)NCC(N)=O)CNCC(=O)N[C@@H](Cc2ccc(O)cc2)C(=O)N(C)[C@@H](C)C(=O)N[C@@H](CC(=O)O)C(=O)N2CCC[C@H]2C(=O)N[C@@H](Cc2cnc[nH]2)C(=O)N[C@@H](CCC(N)=O)C(=O)N2C[C@H](O)C[C@H]2C(=O)N[C@@H](Cc2c[nH]c3ccccc23)C(=O)N[C@@H](CO)C(=O)N[C@@H](Cc2c[nH]c3ccccc23)C(=O)N1C` [Example 10011] here?
Answer: Its IC50 is 1 to 9.9 nM.

Question: `CCCC[C@H]1C(=O)N(C)[C@@H](CCCC)C(=O)N[C@@H](CC(C)C)C(=O)NCCCCC(=O)N[C@@H](Cc2ccc(Cl)cc2)C(=O)N2CCCC[C@H]2C(=O)N[C@@H](CC(N)=O)C(=O)N2CCC[C@H]2C(=O)N[C@@H](CN)C(=O)N[C@@H](CC(C)C)C(=O)N2C[C@H](O)C[C@H]2C(=O)N[C@@H](Cc2c[nH]c3ccccc23)C(=O)N[C@@H](CCN)C(=O)N[C@@H](Cc2cn(CC(=O)O)c3ccccc23)C(=O)N1C` [Example 10537] (cyclo([Ava][Phe(4-Cl)][Pip]NP[Dap]L[Hyp]W[Dab][Trp(1-CH2COOH)][NMeNle][NMeNle]L)) was tested. Which IC50 did it give?
Answer: The IC50 was 10 to 99 nM.

Question: Which IC50 does the source give for `CCCC[C@H]1C(=O)N(C)[C@@H](CCCC)C(=O)N[C@@H](CC(C)C)C(=O)NCCCCC(=O)N[C@@H](Cc2ccc(O)cc2)C(=O)N(C)[C@@H](C)C(=O)N[C@@H](CC(N)=O)C(=O)N2CCC[C@H]2C(=O)N[C@@H](CN)C(=O)N[C@@H](CC(C)C)C(=O)N2C[C@H](O)C[C@H]2C(=O)N[C@@H](Cc2c[nH]c3ccccc23)C(=O)N[C@@H](CCN)C(=O)N[C@@H](Cc2c[nH]c3ccccc23)C(=O)N1C` [Example 10505] (cyclo([Ava]Y[NMeA]NP[Dap]L[Hyp]W[Dab]W[NMeNle][NMeNle]L)) here?
Answer: The IC50 was 1 to 9.9 nM.

Question: For `CCCC[C@H]1C(=O)N(C)[C@@H](CCCC)C(=O)N[C@@H](CC(C)C)C(=O)N[C@H](C(=O)NCC(N)=O)CNCC(=O)N[C@@H](Cc2ccc(O)cc2)C(=O)N(C)[C@@H](C)C(=O)N[C@@H](CC(N)=O)C(=O)N2CCC[C@H]2C(=O)N[C@@H](Cc2cnc[nH]2)C(=O)N[C@@H](CCC(N)=O)C(=O)N2C[C@H](O)C[C@H]2C(=O)N[C@@H](Cc2c[nH]c3ccccc23)C(=O)NCC(=O)N[C@@H](Cc2c[nH]c3ccccc23)C(=O)N1C` [Example 10017], which IC50 is on record?
Answer: The IC50 was 1 to 9.9 nM.

Question: How did the IC50 turn out when `CCCC[C@H]1C(=O)N(C)[C@@H](CCCC)C(=O)N[C@@H](CC(C)C)C(=O)NCCOCC(=O)N[C@@H](Cc2ccccc2)C(=O)N(C)[C@@H](C)C(=O)N[C@@H](CC(C)C)C(=O)N2CCC[C@H]2C(=O)NCC(=O)N[C@@H](CC(C)C)C(=O)N2CCC[C@H]2C(=O)N[C@@H](Cc2ccccc2)C(=O)NCC(=O)N[C@@H](Cc2ccccc2)C(=O)N1C` [Example 10500] (cyclo([AEA]F[NMeA]LPGLPFGF[NMeNle][NMeNle]L)) was run?
Answer: Its IC50 is 100 to 10000 nM.

Question: With `CCCC[C@H]1C(=O)N(C)[C@@H](CCCC)C(=O)N[C@@H](CC(C)C)C(=O)NCCC[C@@H](N)C(=O)N[C@@H](Cc2ccc(C)cc2)C(=O)N2CCCC[C@H]2C(=O)N[C@@H](CC(N)=O)C(=O)N2CCC[C@H]2C(=O)N[C@@H](CN)C(=O)N[C@@H](CC(C)C)C(=O)N2C[C@H](O)C[C@H]2C(=O)N[C@@H](Cc2c[nH]c3ccccc23)C(=O)N[C@@H](CCN)C(=O)N[C@@H](Cc2cn(CC(=O)O)c3ccccc23)C(=O)N1C` [Example 10567] (H-[dOrn][Phe(4-Me)][Pip]NP[Dap]L[Hyp]W[Dab][Trp(1-CH2COOH)][NMeNle][NMeNle]L; lactam 1-C) as the compound, how does the IC50 read?
Answer: The IC50 was 10 to 99 nM.

Question: With `CCCC[C@H]1C(=O)N(C)[C@@H](CCCC)C(=O)N[C@@H](CCC(=O)O)C(=O)N[C@H](C(N)=O)CNCC(=O)N[C@@H](Cc2ccc(O)cc2)C(=O)N2CCCC[C@H]2C(=O)N[C@@H](CC(N)=O)C(=O)N2CCC[C@H]2C(=O)N[C@@H](Cc2c[nH]cn2)C(=O)N[C@@H](CC(=O)O)C(=O)N2C[C@H](O)C[C@H]2C(=O)N[C@@H](Cc2c[nH]c3ccccc23)C(=O)N[C@@H](C)C(=O)N[C@@H](Cc2cn(CC(=O)O)c3ccccc23)C(=O)N1C` [Example 9054] as the compound, how does the IC50 read?
Answer: The IC50 was 1 to 9.9 nM.

Question: `CCCC[C@H]1C(=O)N(C)[C@@H](CCCC)C(=O)N[C@@H](CC(C)C)C(=O)NCCCCC(=O)N[C@@H](Cc2ccc(O)cc2)C(=O)N2CCCC[C@H]2C(=O)N[C@@H](CC(=O)O)C(=O)N2CCC[C@H]2C(=O)N[C@@H](Cc2c[nH]cn2)C(=O)N[C@@H](CCCCN)C(=O)N2C[C@H](O)C[C@H]2C(=O)N[C@@H](Cc2c[nH]c3ccccc23)C(=O)N[C@@H](CCCCN)C(=O)N[C@@H](Cc2cn(CC(=O)O)c3ccccc23)C(=O)N1C` [Example 10510] (cyclo([Ava]Y[Pip]DPHK[Hyp]WK[Trp(1-CH2COOH)][NMeNle][NMeNle]L)) was tested. Which IC50 did it give?
Answer: Its IC50 is 100 to 10000 nM.

Question: `CCCC[C@H]1C(=O)N(C)[C@@H](CCCC)C(=O)N[C@@H](CC(C)C)C(=O)N[C@H](C(N)=O)CCCC(=O)N[C@@H](Cc2ccc(OC)cc2)C(=O)N2CCCC[C@H]2C(=O)N[C@@H](CC(N)=O)C(=O)N2CCC[C@H]2C(=O)N[C@@H](CN)C(=O)N[C@@H](CC(C)C)C(=O)N2C[C@H](O)C[C@H]2C(=O)N[C@@H](Cc2c[nH]c3ccccc23)C(=O)N[C@@H](CCN)C(=O)N[C@@H](Cc2cn(CC(=O)O)c3ccccc23)C(=O)N1C` [Example 10525] (Y(Me)[Pip]NP[Dap]L[Hyp]W[Dab][Trp(1-CH2COOH)][NMeNle][NMeNle]L[Aad]-NH2; lactam N-14) was tested. Which IC50 did it give?
Answer: Its IC50 is 10 to 99 nM.

Question: Which IC50 does the source give for `CCCC[C@H]1C(=O)N(C)[C@@H](CCCC)C(=O)N[C@@H](CC(C)C)C(=O)N[C@H](C(N)=O)CNCC(=O)N[C@@H](Cc2ccc(O)cc2)C(=O)N2CCCC[C@H]2C(=O)N[C@@H](CC(N)=O)C(=O)N2CCC[C@H]2C(=O)N[C@@H](Cc2c[nH]cn2)C(=O)N[C@@H](CCC(N)=O)C(=O)N2C[C@H](O)C[C@H]2C(=O)N[C@@H](Cc2c[nH]c3ccccc23)C(=O)N[C@@H](C)C(=O)N[C@@H](Cc2cn(CC(=O)O)c3ccccc23)C(=O)N1C` [Example 9051] here?
Answer: The IC50 was 1 to 9.9 nM.

Question: With `CCCC[C@H]1C(=O)N(C)[C@@H](CCCC)C(=O)N[C@@H](CC(C)C)C(=O)N[C@H](C(=O)NCC(N)=O)CNCC(=O)N[C@@H](Cc2ccc(F)cc2)C(=O)N(C)[C@@H](C)C(=O)N[C@@H](CC(=O)O)C(=O)N2CCC[C@H]2C(=O)N[C@@H](CCC(N)=O)C(=O)N[C@@H](CCC(=O)O)C(=O)N2C[C@H](O)C[C@H]2C(=O)N[C@@H](Cc2c[nH]c3ccccc23)C(=O)N[C@@H](CC(N)=O)C(=O)N[C@@H](Cc2cn(CC(=O)O)c3ccccc23)C(=O)N1C` [Example 9016] as the compound, how does the IC50 read?
Answer: Its IC50 is 1 to 9.9 nM.

Question: `CCCC[C@H]1C(=O)N(C)[C@@H](CCCC)C(=O)N[C@@H](CCC(=O)O)C(=O)N[C@H](C(N)=O)CNCC(=O)N[C@@H](Cc2ccc(F)cc2)C(=O)N2CCCC[C@H]2C(=O)N[C@@H](CC(N)=O)C(=O)N2CCC[C@H]2C(=O)N[C@@H](CCC(N)=O)C(=O)N[C@@H](CC(C)C)C(=O)N2C[C@H](O)C[C@H]2C(=O)N[C@@H](Cc2c[nH]c3ccccc23)C(=O)N[C@@H](CC(N)=O)C(=O)N[C@@H](Cc2cn(CC(=O)O)c3ccccc23)C(=O)N1C` [Example 9046] was tested. Which IC50 did it give?
Answer: Its IC50 is 1 to 9.9 nM.
